Literature values as cited in patent publication US20120101165A1, “Urea Compositions With Cooling Effect” (priority 2007, published 2012).
Where two headings read alike, the source gives them in different places.

Columns and labels:
[1] = endothermic
[2] = not given; remark: listed apart in the source
[3] = 20% urea solution

SMILES: NC(N)=O [urea, diaminomethanal]
- heat of solution in water [1]: about −57.8 cal/g
- solubility in water (at 20° C.): 108 g/100 mL
- solubility in water (at 100° C.): 733 g/100 mL
- critical relative humidity ([2]; at 20° C.): about 81%
- critical relative humidity ([2]; at 30° C.): about 73%
- pH after storage ([3]; after 11 months at room temperature): 8.8
- initial pH ([3]; initial): about 7.4
